Tested on: AAV IgG
Experiment: Serum AAV IgG (ELISA) in AAV-SEAP-injected mice
Format: in vivo, C57BL/6 female mice
Conditions: Example 12; SVP[Rapa] 100 μg; ibrutinib 500 μg
Procedure: At time indicated (days 5, 9, 12, 16, 21, 42, 47, 51, 55, 162,167,174, 195 and 210) mice were bled, serum separated from whole blood and stored at −20±5° C. until analysis. Then IgM antibodies to AAV was measured in ELISA: 96-well plates coated o/n with the AAV, washed and blocked on the following day, then diluted serum samples (1:40) added to the plate and incubated; plates washed, donkey anti-mouse IgM specific-HRP added and after another incubation and wash, the presence of IgM antibodies to AAV detected by adding TMB substrate and measuring at an absorbance of 450 nm with a reference wavelength of 570 nm (the intensity of the signal presented as top optical density, OD, is directly proportional to the quantity of IgM antibody in the sample).
Same serum samples from Example 3 were also tested for AAV IgG measured by ELISA along the same lines as IgM with the exception of goat anti-mouse IgG specific-HRP being used.

SMILES: C=CC(=O)N1CCC[C@@H](n2nc(-c3ccc(Oc4ccccc4)cc3)c3c(N)ncnc32)C1 [ibrutinib]
- animals AAV IgG-converting by d22: 10/10
